Literature values, collected in US20130344150A1, “DIRECT COMPRESSION TABLETS OF OTILONIUM” (Abdi Ibrahim IIac Sanayi Ve Ticaret Anonim Sirketi, priority 2009, published 2013).

Legend:
[1] = clinical studies
[2] = tested on: gastrointestinal-motility; details: baseline and chemically or physically stimulated

For `CCCCCCCCOc1ccccc1C(=O)Nc1ccc(C(=O)OCC[N+](C)(CC)CC)cc1` [otilonium bromide], the tolerability [1] is listed as “good tolerability profile” and the effect on gastrointestinal-motility [2] is listed as “inhibits both baseline and chemically or physically stimulated gastrointestinal-motility”.
